Experimental data as given in a polymer gas permeability compilation.

Row | SMILES | CH4 permeability [Barrer] | CO2 permeability [Barrer] | H2 permeability [Barrer] | N2 permeability [Barrer] | O2 permeability [Barrer]
1 | */C(C)=C(/*)[Si](C)(C)CC (repeat unit) | 1200 | 4600 | 1930 | 490 | 970
2 | *C(=C(*)c1ccc([Si](c2ccccc2)(c2ccccc2)c2ccccc2)cc1)c1ccccc1 (repeat unit) | 5.58 | 78.8 | 51.7 | 2.78 | 12.1
3 | *C(=C(*)c1ccc2c(c1)C(C)(C)CC2(C)C)c1cc(F)cc(F)c1 (repeat unit) | 29100 | 36100 | 28500 | 13100 | 15200
4 | *Oc1ccc(C(=O)c2ccc(Oc3c(C)cc(-c4cc(C)c(*)c(C)c4)cc3C)cc2)cc1 (repeat unit) | 1.02 | 19.4 | – | 0.971 | 4.76
5 | *Oc1ccc(C(=O)c2ccc(Oc3ccc(C(c4ccc(*)cc4)(C(F)(F)F)C(F)(F)F)cc3)cc2)c2ccccc12 (repeat unit) | 0.21 | 6.04 | – | 0.325 | 1.85
6 | *Oc1ccc(C(=O)c2ccccc2-c2ccccc2C(=O)c2ccc(Oc3ccc(C(c4ccc(*)cc4)(C(F)(F)F)C(F)(F)F)cc3)cc2)cc1 (repeat unit) | 0.087 | 3.12 | – | 0.146 | 0.99
7 | *Oc1ccc(C(C)(C)c2ccc(OC(=O)c3cc(C(*)=O)cc(C(C)(C)C)c3)c(C(C)C)c2)cc1C(C)C (repeat unit) | 1.43 | 16.1 | 41.4 | 1.08 | 5.03
8 | *Oc1ccc(C(C)(C)c2ccc(OC(=O)c3cc(C(*)=O)cc(C(C)(C)C)c3)c(C)c2)cc1C (repeat unit) | 0.4 | 8 | 27.1 | 0.393 | 2.37
9 | *Oc1ccc(C(C)(C)c2ccc(OC(=O)c3cccc(C(*)=O)c3)c(C)c2)cc1C (repeat unit) | 0.0459 | 1.24 | 7.79 | 0.0628 | 0.4
10 | *Oc1ccc(C(C)(C)c2ccc(OC(=O)c3cccc(C(=O)Oc4cc(-c5cc(*)cc6ccccc56)c5ccccc5c4)c3)cc2)cc1 (repeat unit) | 0.148 | 4 | – | 0.139 | 0.93
11 | *Oc1ccc(C(C)(C)c2ccc(OCCC(*)O)cc2)cc1 (repeat unit) | 0.02 | 0.5 | – | 0.019 | 0.09
12 | *Oc1ccc(C(c2ccc(OC(=O)c3cc(C(*)=O)cc(C(C)(C)C)c3)cc2)(C(F)(F)F)C(F)(F)F)cc1 (repeat unit) | 3.47 | 56.9 | 86.7 | 3.72 | 15.7
13 | *Oc1ccc(C(c2ccc(OC(=O)c3cccc(C(*)=O)c3)cc2)(C(F)(F)F)C(F)(F)F)cc1 (repeat unit) | 0.736 | 16.6 | 37.3 | 0.958 | 4.54
14 | *Oc1ccc(C(c2ccc(Oc3c(F)c(F)c(COC(C4CCCC(C(OCc5c(F)c(F)c(*)c(F)c5F)(C(F)(F)F)C(F)(F)F)C4)(C(F)(F)F)C(F)(F)F)c(F)c3F)cc2)(C(F)(F)F)C(F)(F)F)cc1 (repeat unit) | 0.55 | 12 | 28 | 0.9 | 3.8
15 | *Oc1ccc(C(c2ccc(Oc3ccc(C(=O)c4ccc(C(c5ccc(C(=O)c6ccc(*)cc6)cc5)(C(F)(F)F)C(F)(F)F)cc4)cc3)cc2)(C(F)(F)F)C(F)(F)F)cc1 (repeat unit) | 0.477 | 11.5 | 31.4 | 0.76 | 3.7
16 | *Oc1ccc(C2(c3ccc(Oc4ccc(S(=O)(=O)c5ccc(*)cc5)cc4)c(C)c3)OC(=O)c3ccccc32)cc1C (repeat unit) | 0.0727 | 3.12 | 10.8 | 0.11 | 0.868
17 | *Oc1ccc(Cc2ccc(Oc3c(F)c(F)c(COC(C4CCCC(C(OCc5c(F)c(F)c(*)c(F)c5F)(C(F)(F)F)C(F)(F)F)C4)(C(F)(F)F)C(F)(F)F)c(F)c3F)cc2)cc1 (repeat unit) | 0.33 | 7.6 | 18 | 0.55 | 2.3
18 | *Oc1ccc(N2C(=O)CCC23CCC(=O)N3c2ccc(Oc3c(F)c(F)c(COC(C4CCCC(C(OCc5c(F)c(F)c(*)c(F)c5F)(C(F)(F)F)C(F)(F)F)C4)(C(F)(F)F)C(F)(F)F)c(F)c3F)cc2)cc1 (repeat unit) | 0.25 | 7.1 | 21 | 0.46 | 2.2
19 | *Oc1ccc(S(=O)(=O)c2ccc(Oc3c(C)cc(-c4cc(C)c(*)c(C)c4C)c(C)c3C)cc2)cc1 (repeat unit) | 0.944 | 25.5 | – | 1.2 | 6
20 | *Oc1ccc(S(=O)(=O)c2ccc(Oc3c(C)cc(C(c4cc(C)c(*)c(C)c4)(C(F)(F)F)C(F)(F)F)cc3C)cc2)cc1 (repeat unit) | 1.61 | 72 | 70.7 | 4 | 18
21 | *Oc1ccc(S(=O)(=O)c2ccc(Oc3c(C)cc(Cc4cc(C)c(*)c(C)c4)cc3C)cc2)cc1 (repeat unit) | 0.577 | 15 | 34.5 | 0.611 | 3.3
22 | *Oc1ccc(S(=O)(=O)c2ccc(Oc3ccc(C4(c5ccc(*)c(C)c5)CCCCC4)cc3C)cc2)cc1 (repeat unit) | 0.0393 | 1.4 | – | 0.0569 | 0.41
23 | *Oc1ccc2c(c1)C1(CC2(C)C)CC(C)(C)c2ccc(OC(=O)c3ccc(C(*)=O)cc3)cc21 (repeat unit) | 4.22 | 55.7 | – | 2.98 | 13.4
24 | *Sc1ccc(*)cc1 (repeat unit) | 0.066 | 1.6 | – | 0.046 | 0.19
25 | *c1c(C)c(C(=O)O)c(C)c(N2C(=O)c3ccc(C(c4ccc5c(c4)C(=O)N(*)C5=O)(C(F)(F)F)C(F)(F)F)cc3C2=O)c1C (repeat unit) | 3.2 | 144 | 193 | 5.52 | 26.4
26 | *c1c(C)c(C)c(-n2c(=O)c3cc4oc5cc6c(cc5oc4cc3c2=O)C2(CC(C)(C)c3cc4oc5cc7c(=O)n(*)c(=O)c7cc5oc4cc32)CC6(C)C)c(C)c1C (repeat unit) | 77 | 1100 | 530 | 47 | 150

Further lines, results first:

Row | CH4 permeability [Barrer] | CO2 permeability [Barrer] | H2 permeability [Barrer] | N2 permeability [Barrer] | O2 permeability [Barrer] | SMILES
27 | 0.25 | 5.6 | 28 | 0.24 | 1.3 | *Oc1ccc(-c2ccc(Oc3ccc(S(=O)(=O)c4ccc(*)cc4)cc3)cc2)cc1 (repeat unit)
28 | 0.12 | 3.27 | 8.38 | 0.11 | 0.64 | *Oc1ccc(C(=O)c2ccc(-c3ccc(C(=O)c4ccc(Oc5ccc(S(=O)(=O)c6ccc(*)cc6)cc5)cc4)cc3)cc2)cc1 (repeat unit)
29 | 0.269 | 5.6 | – | 0.272 | 1.45 | *Oc1ccc(C(C)(C)c2ccc(OC(=O)c3cccc(C(*)=O)c3)cc2)cc1 (repeat unit)
30 | 0.08 | 4.7 | – | 0.15 | 1.2 | *Oc1ccc(C(C)(C)c2ccc(Oc3ccc(S(=O)(=O)c4ccc(*)c5ccccc45)cc3)cc2)cc1 (repeat unit)
31 | 0.25 | 5.6 | 14 | 0.25 | 1.4 | *Oc1ccc(C(C)(C)c2ccc(Oc3ccc(S(=O)(=O)c4ccc(*)cc4)cc3)cc2)cc1 (repeat unit)
32 | 0.111 | 2.8 | 10.6 | 0.11 | 0.69 | *Oc1ccc(C(C)(C)c2cccc(C(C)(C)c3ccc(Oc4ccc(S(=O)(=O)c5ccc(*)cc5)cc4)cc3)c2)cc1 (repeat unit)
33 | 0.396 | 9.5 | 27.8 | 0.455 | 2.55 | *Oc1ccc(C23CC4CC(C2)CC(c2ccc(Oc5ccc(S(=O)(=O)c6ccc(*)cc6)cc5)cc2)(C4)C3)cc1 (repeat unit)
34 | 0.258 | 5.6 | 14 | 0.249 | 1.4 | *Oc1ccc(S(=O)(=O)c2ccc(Oc3ccc(C(C)(C)c4ccc(*)cc4)cc3)cc2)cc1 (repeat unit)
35 | 0.345 | 8.45 | 15.1 | 0.431 | 2.33 | *Oc1ccc(S(=O)(=O)c2ccc(Oc3ccc(C(c4ccc(*)cc4)(C(F)(F)F)C(F)(F)F)cc3)cc2)cc1 (repeat unit)
36 | 0.188 | 4.5 | – | 0.2 | 1.1 | *Oc1ccc(S(=O)(=O)c2ccc(Oc3ccc(Cc4ccc(*)cc4)cc3)cc2)cc1 (repeat unit)
37 | 0.179 | 4.3 | – | 0.196 | 1.1 | *Oc1ccc(S(=O)(=O)c2ccc(Oc3ccc(Oc4ccc(*)cc4)cc3)cc2)cc1 (repeat unit)
38 | 0.0366 | 1.5 | 7.25 | 0.0507 | 0.38 | *Oc1ccc(S(=O)(=O)c2ccc(Oc3ccc4cc(*)ccc4c3)cc2)cc1 (repeat unit)
39 | 0.05 | 1.8 | 8.15 | 0.0735 | 0.5 | *Oc1ccc(S(=O)(=O)c2ccc(Oc3ccc4ccc(*)cc4c3)cc2)cc1 (repeat unit)
